Data on six molecules can be found in patent US20250019385A1, “SPIROCYCLIC ANNULATED 2-AMINO-3-CYANO THIOPHENES AND DERIVATIVES FOR THE TREATMENT OF CANCER” (Boehringer Ingelheim International GmbH, priority 2023, published 2025).

One may read the IC50 as the concentration that inhibits the measured activity by half. By solubility is commonly meant the dissolved amount per volume that the medium holds.

In brackets after ≈: the same amount, converted by molar mass.

KRAS (G12D)::SOS1 protein-protein interaction, sequence (P01116 other isoform, or with tags, fused parts or gaps G12D): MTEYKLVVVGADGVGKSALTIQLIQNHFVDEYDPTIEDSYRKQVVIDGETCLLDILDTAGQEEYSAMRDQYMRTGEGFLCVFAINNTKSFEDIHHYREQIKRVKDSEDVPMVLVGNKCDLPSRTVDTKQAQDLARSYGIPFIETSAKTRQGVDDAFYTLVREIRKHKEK

In the first series the target is KRAS (G12D)::SOS1 protein-protein interaction (Homo sapiens (Human), UniProt P01116, G12D). In words: KRAS::SOS1 AlphaScreen binding assay (KRAS G12D). The settings on record: GDP. The gist of the method:
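AlphaScreen assay with KRAS G12D (1-169, 6His/avi-tagged, 10 nM), GST-SOS1 564-1049 (5 nM) and GDP (10 μM) in PBS, 0.1% BSA, 0.05% Tween 20; compound up to 100 μM top concentration, eleven fivefold dilutions in duplicate. After 30 min, glutathione acceptor and streptavidin donor beads (10 μg/mL each) were added and signal read after a further 60 min at room temperature in the dark; IC50 from 4-parameter logistic fit.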
In general terms: Bead proximity is the source of the signal in Alpha formats.
`C[C@H](Oc1nc(-c2noc3c2CCC[C@@]32CCCc3sc(N)c(C#N)c32)nc2c1CC[C@]21CNCCO1)[C@@H]1C[C@@H](F)CN1C` [II-20]: the IC50 amounted to 1 nM.
Consider `C[C@H](Oc1nc(-c2noc3c2CCC[C@@]32CCCc3sc(N)c(C#N)c32)nc2c1CN(c1ncccn1)[C@]21CCOC1)[C@@H]1CCCN1C` [II-7a], for which the IC50 was 2 nM.
In turn, `C[C@H](Oc1nc(-c2onc3c2CCC[C@@]32CCCc3sc(N)c(C#N)c32)nc2c1CN(C1COC1)C[C@]21CCOC1)[C@@H]1CC[C@H](C)N1C` [I-55] returned an IC50 of 1 nM.
Molecule `CO[C@H]1CCN(C)[C@@H]1[C@H](C)Oc1nc(-c2noc3c2CCC[C@@]32CCCc3sc(N)c(C#N)c32)nc2c1CN(C1COC1)C[C@]21CCOC1` [II-13] came in with an IC50 of 1 nM. This counts as single-digit nanomolar.
In turn, `C[C@H](Oc1nc(-c2noc3c2CCC[C@@]32CCCc3sc(N)c(C#N)c32)nc2c1CN(C1COC1)C[C@]21CCOC1)[C@@H]1CC[C@H](C)N1C` [II-17] yielded an IC50 of 1 nM.
Regarding `C[C@H](Oc1nc(-c2onc3c2CCC[C@@]32CCCc3sc(N)c(C#N)c32)nc2c1n(C)c(=O)n2[C@@H]1CCOC1)[C@@H]1CC[C@H](C)N1C` [I-26], the IC50 is 1 nM.

Test system in a further series: not listed separately
In words: Solubility measurement (DMSO solution precipitation method). It counts as physicochemical. The note with it: McIlvaine buffer pH 4.5, 24 h, from DMSO stock. The method, boiled down: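 A 10 mM DMSO stock was diluted to 250 μM final in McIlvaine buffer at pH 4.5 or 6.8, then shaken 24 h at ambient temperature. After filtering off precipitate, filtrate concentration was quantified by LC-UV against a fully dissolved reference in acetonitrile/water (1:1).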
For the molecule `C[C@H](Oc1nc(-c2noc3c2CCC[C@@]32CCCc3sc(N)c(C#N)c32)nc2c1CC[C@]21CNCCO1)[C@@H]1C[C@@H](F)CN1C` [II-20], the “solubility pH 4.5” value is over 156 μg/ml.

The same series, now with this note: McIlvaine buffer pH 6.8, 24 h, from DMSO stock.
Turning to `C[C@H](Oc1nc(-c2noc3c2CCC[C@@]32CCCc3sc(N)c(C#N)c32)nc2c1CC[C@]21CNCCO1)[C@@H]1C[C@@H](F)CN1C` [II-20], the “solubility pH 6.8” value is recorded as over 156 μg/mL.

Still in this series, the particulars now being: aqueous buffer, kinetic from dmso stock, McIlvaine buffer pH 4.5, 24 h, read-out: solubility pH 4.5.
On to `C[C@H](Oc1nc(-c2noc3c2CCC[C@@]32CCCc3sc(N)c(C#N)c32)nc2c1CN(c1ncccn1)[C@]21CCOC1)[C@@H]1CCCN1C` [II-7a], for which the solubility at 24 h was 65 µg/mL (≈ 97.6 µM).
As to `C[C@H](Oc1nc(-c2onc3c2CCC[C@@]32CCCc3sc(N)c(C#N)c32)nc2c1CN(C1COC1)C[C@]21CCOC1)[C@@H]1CC[C@H](C)N1C` [I-55], the solubility at 24 h is over 159 µg/mL.
Turning to `CO[C@H]1CCN(C)[C@@H]1[C@H](C)Oc1nc(-c2noc3c2CCC[C@@]32CCCc3sc(N)c(C#N)c32)nc2c1CN(C1COC1)C[C@]21CCOC1` [II-13], the solubility at 24 h is over 151 µg/mL.
The same measure, in the same setting: for `C[C@H](Oc1nc(-c2noc3c2CCC[C@@]32CCCc3sc(N)c(C#N)c32)nc2c1CN(C1COC1)C[C@]21CCOC1)[C@@H]1CC[C@H](C)N1C` [II-17] the value was over 138 µg/mL.
Consider `C[C@H](Oc1nc(-c2onc3c2CCC[C@@]32CCCc3sc(N)c(C#N)c32)nc2c1n(C)c(=O)n2[C@@H]1CCOC1)[C@@H]1CC[C@H](C)N1C` [I-26], for which the solubility at 24 h is over 158 µg/mL.

The same series, now with this note: aqueous buffer, kinetic from dmso stock, McIlvaine buffer pH 6.8, 24 h, read-out: solubility pH 6.8.
On to `C[C@H](Oc1nc(-c2noc3c2CCC[C@@]32CCCc3sc(N)c(C#N)c32)nc2c1CN(c1ncccn1)[C@]21CCOC1)[C@@H]1CCCN1C` [II-7a], for which the solubility at 24 h was found to be 24 µg/mL (≈ 36 µM).
As for `C[C@H](Oc1nc(-c2onc3c2CCC[C@@]32CCCc3sc(N)c(C#N)c32)nc2c1CN(C1COC1)C[C@]21CCOC1)[C@@H]1CC[C@H](C)N1C` [I-55], the solubility at 24 h was over 137 µg/mL.
Turning to `CO[C@H]1CCN(C)[C@@H]1[C@H](C)Oc1nc(-c2noc3c2CCC[C@@]32CCCc3sc(N)c(C#N)c32)nc2c1CN(C1COC1)C[C@]21CCOC1` [II-13], the solubility at 24 h turned out to be 52 µg/mL (≈ 75.6 µM).
With `C[C@H](Oc1nc(-c2noc3c2CCC[C@@]32CCCc3sc(N)c(C#N)c32)nc2c1CN(C1COC1)C[C@]21CCOC1)[C@@H]1CC[C@H](C)N1C` [II-17], the solubility at 24 h worked out at 102 µg/mL (≈ 152 µM).
For the molecule `C[C@H](Oc1nc(-c2onc3c2CCC[C@@]32CCCc3sc(N)c(C#N)c32)nc2c1n(C)c(=O)n2[C@@H]1CCOC1)[C@@H]1CC[C@H](C)N1C` [I-26], the solubility at 24 h amounted to 127 µg/mL (≈ 197 µM).

The subject of a further series is NCI-H358 cells. In words: NCI-H358 CTG proliferation assay (120 h) (NSCLC, G12C). Format: cell-based.
Conditions: not given
The gist of the method: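 Cells seeded at 200 per well in RPMI-1640 with 10% FCS, left overnight, then treated with a logarithmic dose series in duplicate for 120 h. Viability measured by CellTiter-Glo luminescence as percent of DMSO controls; IC50 from four-parameter non-linear regression.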
With `C[C@H](Oc1nc(-c2noc3c2CCC[C@@]32CCCc3sc(N)c(C#N)c32)nc2c1CC[C@]21CNCCO1)[C@@H]1C[C@@H](F)CN1C` [II-20], the IC50 is 59 nM.

Staying with this series, now noted: Homo sapiens.
Turning to `C[C@H](Oc1nc(-c2noc3c2CCC[C@@]32CCCc3sc(N)c(C#N)c32)nc2c1CN(c1ncccn1)[C@]21CCOC1)[C@@H]1CCCN1C` [II-7a], the IC50 worked out at 18 nM. That is a double-digit nanomolar value.
`C[C@H](Oc1nc(-c2onc3c2CCC[C@@]32CCCc3sc(N)c(C#N)c32)nc2c1CN(C1COC1)C[C@]21CCOC1)[C@@H]1CC[C@H](C)N1C` [I-55] showed an IC50 of 5 nM.
For `CO[C@H]1CCN(C)[C@@H]1[C@H](C)Oc1nc(-c2noc3c2CCC[C@@]32CCCc3sc(N)c(C#N)c32)nc2c1CN(C1COC1)C[C@]21CCOC1` [II-13], the IC50 came out at 2 nM.
With `C[C@H](Oc1nc(-c2noc3c2CCC[C@@]32CCCc3sc(N)c(C#N)c32)nc2c1CN(C1COC1)C[C@]21CCOC1)[C@@H]1CC[C@H](C)N1C` [II-17], the IC50 turned out to be 5 nM. Against the preceding molecule, the IC50 is about 2.5-fold higher.
In turn, `C[C@H](Oc1nc(-c2onc3c2CCC[C@@]32CCCc3sc(N)c(C#N)c32)nc2c1n(C)c(=O)n2[C@@H]1CCOC1)[C@@H]1CC[C@H](C)N1C` [I-26] displayed an IC50 of 7 nM. The IC50 values of the last two molecules are within 1.5-fold of each other.

The next series has as its system LOVO cells. In words: LOVO CTG proliferation assay (120 h) (CRC, G13D).
Conditions: not given
It counts as cell-based. The method, boiled down:
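Cells seeded at 1000/well in DMEM + 10% FCS, dosed next day with a logarithmic compound series, technical duplicates, for 120 h. Viability by CellTiter-Glo luminescence as percent of DMSO control; IC50 from four-parameter non-linear regression.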
As to `C[C@H](Oc1nc(-c2noc3c2CCC[C@@]32CCCc3sc(N)c(C#N)c32)nc2c1CC[C@]21CNCCO1)[C@@H]1C[C@@H](F)CN1C` [II-20], the midpoint of inhibition, the IC50, lay at 253 nM.

The same series, now with this note: Homo sapiens.
For `C[C@H](Oc1nc(-c2noc3c2CCC[C@@]32CCCc3sc(N)c(C#N)c32)nc2c1CN(c1ncccn1)[C@]21CCOC1)[C@@H]1CCCN1C` [II-7a], the IC50 was determined as 11 nM.
On the same count and under the same terms, for `C[C@H](Oc1nc(-c2onc3c2CCC[C@@]32CCCc3sc(N)c(C#N)c32)nc2c1CN(C1COC1)C[C@]21CCOC1)[C@@H]1CC[C@H](C)N1C` [I-55] the value was 26 nM.
`CO[C@H]1CCN(C)[C@@H]1[C@H](C)Oc1nc(-c2noc3c2CCC[C@@]32CCCc3sc(N)c(C#N)c32)nc2c1CN(C1COC1)C[C@]21CCOC1` [II-13] showed an IC50 of 8 nM.
`C[C@H](Oc1nc(-c2noc3c2CCC[C@@]32CCCc3sc(N)c(C#N)c32)nc2c1CN(C1COC1)C[C@]21CCOC1)[C@@H]1CC[C@H](C)N1C` [II-17] returned an IC50 of 109 nM.
Same read-out and setting: in the case of `C[C@H](Oc1nc(-c2onc3c2CCC[C@@]32CCCc3sc(N)c(C#N)c32)nc2c1n(C)c(=O)n2[C@@H]1CCOC1)[C@@H]1CC[C@H](C)N1C` [I-26] it was 11 nM.

Test system in a further series: not listed separately
Briefly: Plasma protein binding assay (PPB), equilibrium dialysis. It counts as in vitro ADME. The settings on record: 10% FCS in PBS, fraction unbound. The gist of the method: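 Compound at 1-10 μmol/L in 10% FCS in PBS was dialysed against PBS (with or without dextran) across a 5-10 kg/mol cut-off membrane for 3-5 h at 37° C. Both chambers were protein-precipitated and compound was quantified by LC-MS. The unbound fraction was calculated from the serum-side and buffer-side concentrations.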
Turning to `C[C@H](Oc1nc(-c2noc3c2CCC[C@@]32CCCc3sc(N)c(C#N)c32)nc2c1CC[C@]21CNCCO1)[C@@H]1C[C@@H](F)CN1C` [II-20], the “PPB 10% FCS (% fu)” value is 10 % fu.

The series is the same for the next values; noted with them: bovine, 10% FCS in PBS, read-out: PPB 10% FCS (% fu).
Turning to `C[C@H](Oc1nc(-c2noc3c2CCC[C@@]32CCCc3sc(N)c(C#N)c32)nc2c1CN(c1ncccn1)[C@]21CCOC1)[C@@H]1CCCN1C` [II-7a], the fraction unbound was found to be 0.02.
`C[C@H](Oc1nc(-c2onc3c2CCC[C@@]32CCCc3sc(N)c(C#N)c32)nc2c1CN(C1COC1)C[C@]21CCOC1)[C@@H]1CC[C@H](C)N1C` [I-55]: the fraction unbound is 0.2.
The same measure, in the same setting: in the case of `CO[C@H]1CCN(C)[C@@H]1[C@H](C)Oc1nc(-c2noc3c2CCC[C@@]32CCCc3sc(N)c(C#N)c32)nc2c1CN(C1COC1)C[C@]21CCOC1` [II-13] it was 0.09; in that of `C[C@H](Oc1nc(-c2noc3c2CCC[C@@]32CCCc3sc(N)c(C#N)c32)nc2c1CN(C1COC1)C[C@]21CCOC1)[C@@H]1CC[C@H](C)N1C` [II-17], 0.1; in that of `C[C@H](Oc1nc(-c2onc3c2CCC[C@@]32CCCc3sc(N)c(C#N)c32)nc2c1n(C)c(=O)n2[C@@H]1CCOC1)[C@@H]1CC[C@H](C)N1C` [I-26], 0.17.
